# According to US8563553B2, “Compounds and compositions as protein kinase inhibitors” (Novartis AG, priority 2009, dated 2013):
# pIC50: −log10 of the molar value.
# Target: b-Raf(V600E) (Homo sapiens (Human), UniProt P15056, V600E)
# Assay: Raf/Mek Amplified Luminescence Proximity Homogeneous Assay (Alpha Screen)
# Type: biochemical
# Conditions: b-Raf(V600E) approximately 4 pM; biotinylated Mek, kinase dead approximately 10 nM; ATP 10 μM; pre-incubation 60 minutes; reaction 3 hours at room temperature; read-out: mut-B-RAF IC50
# Procedure: Raf/Mek Amplified Luminescence Proximity Homogeneous Assay
# Assay buffer: 50 mM Tris, pH 7.5, 15 mM MgCl2, 0.01% Bovine Serum Albumin (BSA), 1 mM dithiothreitol (DTT) Stop buffer: 60 mM ethylenediaminetetraacetic acid (EDTA), 0.01% Tween® 20 Bead buffer: 50 mM Tris, pH 7.5, 0.01% Tween® 20 […]
# biotinylated Mek, kinase dead
# Alpha Screen detection kit (available from PerkinElmer™, #6760617R)
# Anti phospho-MEK1/2 (available from Cell Signaling Technology, Inc. #9121) 384 well assay plates (White Greiner® plates, #781207) […]
# biotinylated Mek, Kinase dead approximately 10 nM
# Pre-incubation time with compounds 60 minutes at room temperature
# Reaction time 1 or 3 hours at room temperature
# Raf and biotinylated Mek, kinase dead, were combined at 2× final concentrations in assay buffer (50 mM Tris, pH 7.5, 15 mM MgCl2, 0.01% BSA and 1 mM DTT) and dispensed 10 μl per well in assay plates (Greiner white 384 well assay plates #781207) containing 0.5 μl of 40× of a raf kinase inhibitor test compound diluted in 100% DMSO. The plate was incubated for 60 minutes at room temperature.
# The Raf kinase activity reaction was started by the addition of 10 μL per well of 2×ATP diluted in assay buffer. […] Phosphorylated product was measured using a rabbit anti-p-MEK (Cell Signaling, #9121) antibody and the Alpha Screen IgG (ProteinA) detection Kit (PerkinElmer #6760617R), by the addition of 30 μL to the well of a mixture of the antibody (1:2000 dilution) and detection beads (1:2000 dilution of both beads) in bead buffer (50 mM Tris, pH 7.5, 0.01% Tween20). The additions were carried out under dark conditions to protect the detection beads from light. A lid was placed on top of the plate and incubated for 1 hour at room temperature, then the luminescence was read on a PerkinElmer Envision instrument. The concentration of each compound for 50% inhibition (IC50) was calculated by non-linear regression using XL Fit data analysis software.
# Chain of b-Raf(V600E) (P15056 whole entry V600E): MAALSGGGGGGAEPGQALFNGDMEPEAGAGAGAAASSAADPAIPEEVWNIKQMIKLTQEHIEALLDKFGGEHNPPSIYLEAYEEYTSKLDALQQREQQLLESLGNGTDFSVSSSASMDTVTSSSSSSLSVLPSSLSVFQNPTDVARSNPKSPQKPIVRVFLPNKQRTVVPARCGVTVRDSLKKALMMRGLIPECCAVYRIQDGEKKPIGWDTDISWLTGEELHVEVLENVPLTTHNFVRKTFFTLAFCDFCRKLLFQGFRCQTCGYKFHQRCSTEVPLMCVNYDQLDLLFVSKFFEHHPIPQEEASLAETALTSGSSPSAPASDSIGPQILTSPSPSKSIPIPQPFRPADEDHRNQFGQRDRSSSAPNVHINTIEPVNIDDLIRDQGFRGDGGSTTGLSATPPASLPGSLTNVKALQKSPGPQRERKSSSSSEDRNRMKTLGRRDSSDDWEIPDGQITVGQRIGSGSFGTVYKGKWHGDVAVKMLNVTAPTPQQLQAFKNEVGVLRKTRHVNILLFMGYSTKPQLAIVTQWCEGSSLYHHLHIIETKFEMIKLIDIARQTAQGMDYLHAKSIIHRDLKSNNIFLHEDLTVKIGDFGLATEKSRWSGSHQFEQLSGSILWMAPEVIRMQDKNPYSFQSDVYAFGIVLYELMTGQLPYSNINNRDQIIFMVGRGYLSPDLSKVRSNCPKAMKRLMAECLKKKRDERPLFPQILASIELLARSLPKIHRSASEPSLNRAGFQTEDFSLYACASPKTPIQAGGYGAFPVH
row,Structure (SMILES),pIC50
1,"CC1(c2nc(-c3cc(F)cc(NS(C)(=O)=O)c3Cl)c(-c3ccnc(NCCC#N)n3)[nH]2)CC1 [Example 1AY, N-(2-Chloro-3-(5-(2-(2-cyanoethylamino)pyrimidin-4-yl)-2-(1-methylcyclopropyl)-1H-imidazol-4-yl)-5-fluorophenyl)methanesulfonamide]",9.64
2,"CS(=O)(=O)Nc1cc(F)cc(-c2nc(C3CC3)[nH]c2-c2ccnc(N)n2)c1Cl [Example 1BQ, N-(3-(5-(2-Aminopyrimidin-4-yl)-2-cyclopropyl-1H-imidazol-4-yl)-2-chloro-5-fluorophenyl)methanesulfonamide]",7.92
3,"CCCS(=O)(=O)Nc1cc(Cl)cc(-c2[nH]c(C(C)(C)C)nc2-c2ccnc(NC[C@H](C)NC(=O)OC)n2)c1F [Example 4F, (S)-Methyl 1-(4-(2-tert-butyl-5-(5-chloro-2-fluoro-3-(propylsulfonamido)phenyl)-1H-imidazol-4-yl)pyrimidin-2-ylamino)propan-2-ylcarbamate]",9.28
4,"CCCS(=O)(=O)Nc1cccc(-c2nc(C3CC3)[nH]c2-c2ccnc(NCCC(N)=O)n2)c1F [Example 4H, 3-(4-(2-Cyclopropyl-4-(2-fluoro-3-(propylsulfonamido)phenyl)-1H-imidazol-5-yl)pyrimidin-2-ylamino)propanamide]",8.70
5,"COC(=O)N[C@@H](C)CNc1nccc(-c2nc(C3CC3)[nH]c2-c2cc(Cl)cc(NS(=O)(=O)CCC(F)(F)F)c2F)n1 [Example 1AA, (S)-Methyl 1-(4-(5-(5-chloro-2-fluoro-3-(3,3,3-trifluoropropylsulfonamido)phenyl)-2-cyclopropyl-1H-imidazol-4-yl)pyrimidin-2-ylamino)propan-2-ylcarbamate]",9.22
6,"Cc1cc(NS(C)(=O)=O)c(F)c(-c2nc(C3(C)CC3)[nH]c2-c2ccnc(NCCC#N)n2)c1 [Example 1BA, N-(3-(5-(2-(2-Cyanoethylamino)pyrimidin-4-yl)-2-(1-methylcyclopropyl)-1H-imidazol-4-yl)-2-fluoro-5-methylphenyl)methanesulfonamide]",9.43
7,"COC(=O)N[C@@H](C)CNc1nccc(-c2[nH]c(C(C)(C)C)nc2-c2cc(NS(=O)(=O)C(C)C)c(C)c(OC)c2)n1 [Example 1K, (S)-Methyl 1-(4-(2-tert-butyl-4-(3-methoxy-4-methyl-5-(1-methylethylsulfonamido)phenyl)-1H-imidazol-5-yl)pyrimidin-2-ylamino)propan-2-ylcarbamate]",6.72
8,"CC1(c2nc(-c3cccc(NS(C)(=O)=O)c3Cl)c(-c3ccnc(NCCC#N)n3)[nH]2)CC1 [Example 1BC, N-(2-Chloro-3-(5-(2-(2-cyanoethylamino)pyrimidin-4-yl)-2-(1-methylcyclopropyl)-1H-imidazol-4-yl)phenyl)methanesulfonamide]",9.00
9,"COC(=O)N[C@@H](C)CNc1nccc(-c2[nH]c(C3CC3)nc2-c2cccc(NS(C)(=O)=O)c2)n1 [Example 4K, (S)-Methyl 1-(4-(2-cyclopropyl-4-(3-(methylsulfonamido)phenyl)-1H-imidazol-5-yl)pyrimidin-2-ylamino)propan-2-ylcarbamate]",8.10
10,"CC(C)CNc1nccc(-c2[nH]c(C3CC3)nc2-c2cc(F)cc(NS(C)(=O)=O)c2Cl)n1 [Example 1AR, N-(2-Chloro-3-(2-cyclopropyl-5-(2-(isobutylamino)pyrimidin-4-yl)-1H-imidazol-4-yl)-5-fluorophenyl)methanesulfonamide]",8.30
11,"COC(=O)N[C@@H](C)CNc1nccc(-c2[nH]c(C3CC3)nc2-c2cc(C)cc(NS(=O)(=O)C(C)C)c2)n1 [Example 4D, (S)-Methyl 1-(4-(2-cyclopropyl-4-(3-methyl-5-(1-methylethylsulfonamido)phenyl)-1H-imidazol-5-yl)pyrimidin-2-ylamino)propan-2-ylcarbamate]",9.02
12,"CNc1nccc(-c2[nH]c(C3CC3)nc2-c2cc(F)cc(NS(=O)(=O)c3c(F)cccc3F)c2Cl)n1 [Example 1BV, N-(2-Chloro-3-(2-cyclopropyl-5-(2-(methylamino)pyrimidin-4-yl)-1H-imidazol-4-yl)-5-fluorophenyl)-2,6-difluorobenzenesulfonamide]",9.00
13,"Nc1nccc(-c2[nH]c(C3CC3)nc2-c2cccc(NS(=O)(=O)c3c(F)cccc3F)c2Cl)n1 [Example 2H, N-(3-(5-(2-aminopyrimidin-4-yl)-2-cyclopropyl-1H-imidazol-4-yl)-2-chlorophenyl)-2,6-difluorobenzenesulfonamide]",9.00
14,"COC(=O)N[C@@H](C)CNc1nccc(-c2[nH]c(C(C)(C)C)nc2-c2cc(Cl)cc(NS(=O)(=O)C(C)C)c2)n1 [Example 1J, (S)-Methyl 1-(4-(2-tert-butyl-4-(3-chloro-5-(1-methylethylsulfonamido)phenyl)-1H-imidazol-5-yl)pyrimidin-2-ylamino)propan-2-ylcarbamate]",8.87
15,"COC(=O)N[C@@H](C)CNc1nccc(-c2[nH]c(C(C)(C)C)nc2-c2cc(F)cc(NS(C)(=O)=O)c2Cl)n1 [Example 1AG, (S)-Methyl 1-(4-(2-tert-butyl-4-(2-chloro-5-fluoro-3-(methylsulfonamido)phenyl)-1H-imidazol-5-yl)pyrimidin-2-ylamino)propan-2-ylcarbamate]",9.00
16,"COC(=O)N[C@@H](C)CNc1nccc(-c2[nH]c(C3CC3)nc2-c2cc(Cl)cc(NS(C)(=O)=O)c2F)n1 [Example 1A, (S)-methyl 1-(4-(4-(5-chloro-2-fluoro-3-(methylsulfonamido)phenyl)-2-cyclopropyl-1H-imidazol-5-yl)pyrimidin-2-ylamino)propan-2-ylcarbamate]",9.70
17,"COC(=O)N[C@@H](C)CNc1nccc(-c2[nH]c(C(C)(C)C)nc2-c2cccc(NS(C)(=O)=O)c2F)n1 [Example 2C, (S)-Methyl 1-(4-(2-tert-butyl-4-(2-fluoro-3-(methylsulfonamido)phenyl)-1H-imidazol-5-yl)pyrimidin-2-ylamino)propan-2-ylcarbamate]",9.21
18,"CC(C#N)CNc1nccc(-c2[nH]c(C3CC3)nc2-c2cccc(NS(C)(=O)=O)c2Cl)n1 (stereo not shown) [Example 1AK, N-(2-Chloro-3-(5-(2-(2-cyanopropylamino)pyrimidin-4-yl)-2-cyclopropyl-1H-imidazol-4-yl)phenyl)methanesulfonamide]",7.96
19,"CCCS(=O)(=O)Nc1cc(F)cc(-c2nc(C3CC3)[nH]c2-c2ccnc(N)n2)c1Cl [Example 1BS, N-(3-(5-(2-Aminopyrimidin-4-yl)-2-cyclopropyl-1H-imidazol-4-yl)-2-chloro-5-fluorophenyl)propane-1-sulfonamide]",9.70
20,"COC(=O)N[C@H](C)CNc1nccc(-c2[nH]c(C3CC3)nc2-c2cc(F)cc(NS(C)(=O)=O)c2Cl)n1 [Example 1AV, (R)-Methyl 1-(4-(4-(2-chloro-5-fluoro-3-(methylsulfonamido)phenyl)-2-cyclopropyl-1H-imidazol-5-yl)pyrimidin-2-ylamino)propan-2-ylcarbamate]",7.96
21,"CC(C)(C)c1nc(-c2cc(F)cc(NS(=O)(=O)c3c(F)cccc3F)c2Cl)c(-c2ccnc(N)n2)[nH]1 [Example 1BP, N-(3-(5-(2-Aminopyrimidin-4-yl)-2-tert-butyl-1H-imidazol-4-yl)-2-chloro-5-fluorophenyl)-2,6-difluorobenzenesulfonamide]",9.59
22,"Nc1nccc(-c2[nH]c(C3CC3)nc2-c2cc(Cl)cc(NS(=O)(=O)c3c(F)cccc3F)c2F)n1 [Example 1BF, N-(3-(5-(2-Aminopyrimidin-4-yl)-2-cyclopropyl-1H-imidazol-4-yl)-5-chloro-2-fluorophenyl)-2,6-difluorobenzenesulfonamide]",10.00
23,COC(=O)N[C@@H](C)CNc1nccc(-c2nc(C3CC3)[nH]c2-c2cc(Cl)cc(NS(=O)(=O)c3ccc(F)cc3)c2F)n1 [Example 1AW],9.00
24,"COC(=O)N[C@@H](C)CNc1nccc(-c2[nH]c(C3CC3)nc2-c2cc(C)cc(NS(=O)(=O)CC(F)(F)F)c2F)n1 [Example 1BO, (S)-Methyl 1-(4-(2-cyclopropyl-4-(2-fluoro-5-methyl-3-(2,2,2-trifluoroethylsulfonamido)phenyl)-1H-imidazol-5-yl)pyrimidin-2-ylamino)propan-2-ylcarbamate]",9.60
25,"CCCS(=O)(=O)Nc1cc(Cl)cc(-c2nc(C(C)(C)C)[nH]c2-c2ccnc(NC[C@H](C)NC(=O)OC)n2)c1 [Example 1E, (S)-methyl 1-(4-(2-tert-butyl-4-(3-chloro-5-(propylsulfonamido)phenyl)-1H-imidazol-5-yl)pyrimidin-2-ylamino)propan-2-ylcarbamate]",10.00
